In patent publication US20070237818A1, “Controlled-release formulation of HCV protease inhibitor and methods using the same” (priority 2005, published 2007):

How the values were obtained:
melanoma A375 tumors = melanoma A375 tumors implanted into the left ventricle of the heart; cited from earlier work
hepatitis-C virus = assay: mean viral load over time in HCV infected patients (FIG. 1); format: in vivo; conditions: various doses and regimens
From the text: Thus, in one aspect of the invention, the one or more discrete dosages are adjusted in amount to provide a highest dose or doses at a time or times corresponding to the time interval when replication of the hepatitis-C virus is highest.

[1] = solubility in water / aqueous systems; format: physicochemical

SMILES: CN(C)C(=O)[C@H](Cc1ccccc1)NC(=O)[C@H]1O[C@@H]1C(=O)NCCc1ccccn1 [CLIK-148]
- distant bone metastasis to the femur and tibia (melanoma A375 tumors): reduced

SMILES: CC(C)(C)NC(=O)N[C@H](C(=O)N1C[C@H]2[C@@H]([C@H]1C(=O)NC(CC1CCC1)C(=O)C(N)=O)C2(C)C)C(C)(C)C (stereo partly drawn) [Formula Ia, (1R,5S)—N-[3-Amino-1-(Cyclobutylmethyl)-2,3-Dioxopropyl]-3-[2(S)-[[[(1,1-Dimethylethyl)Amino]Carbonyl]Amino]-3,3-Dimethyl-1-Oxobutyl]-6,6-Dimethyl-3-Azabicyclo[3.1.0]Hexan-2(S)-Carboxamide]
- viral load over time (hepatitis-C virus): decline in viral load is cyclical
- solubility [1]: ~600 µg/mL
